Results taken from US8404733B2, “Laser enhanced amino acid blend and use of same to regenerate active myocardial tissue” (priority 2010, dated 2013).

Test system: murine macrophages
Assay: TNF-alpha production (ELISA) by Echinacea activated murine macrophages
Type: cell-based
Settings: 24 hours; amino acid samples 20 mg/ml together with Echinacea; LPS 1 ng/ml; Negative Control 215 +/- 13.7
Excerpt: The rationale for the use of this process of laser enhancement is the result of an in vitro study using a similar short wavelength laser treatment. In this study, murine macrophages that were activated with Echinacea to simulate an irritated immune system were then fed the above formula of amino acids in the untreated and laser treated conditions. […] The specific details of the in vitro study are as follows. 20 grams of the amino acid blend as detailed above was used for each of the control and treated amino acid samples. The Untreated Sample was not treated. The Treated Sample was exposed to laser radiation from a 458 nm pumped argon gas laser with a primary power of 16.5 mW adjusted through the optics to a power level of 5.1 mW The duration of treatment of the sample was 30 seconds. The following bioassays were performed. A standardized Echinacea sample alone or with 20 mg/ml of the Untreated or Treated Sample amino acids were incubated in tissue culture media of triplicate wells of murine macrophages. […] The results were as follows and are expressed as the mean TNF-alpha production plus or minus the statistical standard deviation (SD): Using a Student's 2-tailed t-test, the Echinacea Stimulated Sample was compared to the results of Echinacea plus the Untreated Amino Acid Sample or the Treated Amino Acid Sample.

In the case of lipopolysaccharide [LPS], the “TNF-alpha +/- SD (mean TNF-alpha production)” value is reported as 2863 +/− 185.7.
